Measured values as given in patent US7713960B2, “Inhibition of the Raf/Mek/P-Erk pathway for treating cancer” (University of South Florida, priority 2005, dated 2010).
Structures can show the parent of a compound that is named as a salt.

Experiments:
[1] = tested on: Mek-1; assay: In vivo kinase assay, intact MDA-MB-231 cells treated, Mek-1; assay type: cell-based, human; details: 10 μM
Protocol: In Vitro Kinase Assays—MDA-MB-231 cells (2×10^6) were lysed for 30 minutes at 4° C. in RIPA-150 buffer (10 mM Tris pH 7.5, 150 mM NaCl, 10% glycerol, 5 mM EDTA, 1% Triton X-100, 0.1% SDS, 100 μM sodium orthovanadate, 1 μM aprotinin, 10 μM leupeptin, 10 μM antipain). Cell debris was pelleted at 13000 rpm for 15 minutes at 4° C. and the lysate was rocked overnight with 10 μg of either c-Raf or MEK antibodies (Santa Cruz Biotechnologies, Santa Cruz, Calif.). 25 μl of protein A/G PLUS agarose (Santa Cruz Biotechnology) was then added and rocked for 4 hours at 4° C. Samples were spun at 2000 rpm for 5 minutes to collect the agarose beads, which were then washed four times with lysis buffer. On the final wash each pellet was divided into 5. […]

[2] = tested on: SNB-19 cells; assay: Nude mouse xenograft model, SNB-19 (s.c.); assay type: in vivo, nude mice; details: SNB-19 xenograft; i.p. 75 mpk/day
From the text: (§1) Anti-tumor activity in nude mouse xenograft model—Female athymic nude (nu/nu) mice, 5-6 weeks old, were purchased from Charles River (Wilmington, Mass.) and allowed to acclimate in the animal facility for one week. After harvesting, A-549, SNB-19, ACHN, and HCT-116 cells were, resuspended in sterile PBS, and injected s.c. into the right and left flanks (10×10^6 cells per flank) of the mice as previously described (Sun et al., 2005). For MDA-MB-231, cells were harvested and resuspended in PBS (10×10^6 cells per 50 μl) and an equal volume of Matrigel (BD Biosciences, San Jose, Calif.). 100 μl of MDA-MB-231 cells in PBS/Matrigel were injected s.c. into the mammary fat pads between the 2nd and 3rd nipples on each side of the mice. Once the tumors reached approximately 200-300 mm^3 the mice were randomized and treated i.p. with 0.1 ml vehicle (PBS) or ARA-211. Each treatment group consisted of five mice (2 tumors per mouse, a total of 10 tumors). The tumor volumes were determined by measuring the length (l) and width (w) and calculating the volume (V=w^2l/2). Statistical significance between the control and treated animals was determined using a student's t test.

[3] = tested on: P-STAT3; assay: P-STAT3 levels (Western blotting), MDA-MB-231; assay type: cell-based, human
Protocol: Western Blotting—Treated cell samples were lysed in 30 mM HEPES, 10 mM NaCl, 5 mM MgCl2, 25 mM NaF, 1 mM EGTA, 1% Triton-X-100, 10% Glycerol, 2 mM Sodium orthovanidate, 10 μg/mL aprotinin, 10 μg/mL soybean trypsin inhibitor, 25 μg/mL leupeptin, 2 mM phenylmethylsulfonylfluoride (PMSF), 6.4 mg/mL p-nitrophenylphosphate for 30 minutes at 4° C., and proteins run on SDS-PAGE gels then transferred to nitrocellulose membranes. Membranes were blocked in either 5% milk in PBS, pH 7.4, containing 0.1% Tween-20 (PBS-T) or 1% BSA in TBS, pH 7.5, containing 0.1% Tween-20 (TBS-T). Phospho-STAT3 and phospho-AKT antibodies were diluted in 1% BSA in TBS-T while phospho-c-Raf, phospho-Mek, and phospho-p44/p42 MAPK antibodies (Cell Signaling) were diluted in 5% milk in PBS-T for either 1 hour at room temperature or overnight at 4° C. HRP-conjugated secondary antibodies (Jackson ImmunoResearch, West Grove, Pa.) were diluted in 5% milk in PBS-T or TBS-T at a 1:1000 dilution for one hour at room temperature. Western blots results were visualized using enhanced chemiluminescence. Stripping of the membranes for reblotting was done using stripping buffer (62.5 mM Tris pH 7.6, 2% SDS, 0.7% 2-mercaptoethanol) at 50° C. for 30 minutes.

[4] = tested on: MDA-MB-231 cells; assay: Anchorage-independent growth (soft agar assay), MDA-MB-231; assay type: cell-based, human
Protocol: Soft Agar Assay—Anchorage independent growth assays were performed as previously described (Lerner et al., 1997). Briefly, agar was diluted to 0.3% in propagation media containing 20,000 cells and either vehicle or ARA-211 and 1 ml of cell/agar mixture plated on top of 2 ml of a 0.6% layer of agar in medium alone. Cells were grown for three to four weeks at 37° C., 10% Co2 and were fed weekly with 100 μl per well of media/treatment. Quantification of colonies was done using a GS-700 scanning densitometer.

[5] = tested on: A-549 cells; assay: Total cellular cAMP measurement, A-549; assay type: cell-based, human
Protocol: (§2) Total cellular cAMP measurement—The measurement of total cellular cAMP was done using a cAMP Biotrak ™ Enzymeimmunoassay (EIA) system (Amersham Biosciences, Piscataway, N.J.) according to the manufacturer's protocol. Briefly, 2000 cells were plated into each well of a 96 well plate. The next day cells were treated with increasing concentrations of ARA-211 or with vehicle for one hour. Alternatively, MDA-MB-231 cells were pre-treated with antagonists to the α1 (Prazosin, Sigma), α2 (Yohimbine, Sigma), β1 (Metoprolol, Sigma), and β2 (ICI 118.551, Sigma) adrenergic receptors at 100 nM for 15 minutes followed by treatment with 10 μM ARA-211 for 45 minutes. Cells were then lysed directly in the wells using the supplied lysis buffer. The lysate was transferred to a 96-well cAMP ELISA plate, and results were quantified using a Wallac Victor 2 plate reader.

[6] = tested on: MDA-MB-231 cells; assay: Total cellular cAMP measurement, MDA-MB-231; assay type: cell-based, human
Protocol: as §2

[7] = tested on: MDA-MB-231 cells; assay: Nude mouse xenograft model, MDA-MB-231 (mammary fat pads); assay type: in vivo, nude mice; details: MDA-MB-231 xenograft; i.p. 200 mpk/day
From the text: as §1

- cAMP (Fold Induction) [5]: 1.3 ± 0.3 Fold
- cAMP (Fold Induction) [6]: 16.7 ± 5.4 Fold
Compound: CC(C)(C)NCC(O)c1ccc(O)c(CO)n1 (stereo not drawn) [ARA-211, 2-hydroxymethyl-3-hydroxy-6-(1-hydroxy-2-tert-butylaminoethyl) pyridine, dihydrochloride]
- Mek-1 kinase activity, intact cells first treated [1]: blocked
- growth of tumors [2]: is not affected
- P-STAT3 levels [3]: not
- Anchorage Independent Growth (% Inhibition) [4]: 82.7 ± 7.9%
- formation of cAMP [6]: induced the formation of CAMP
- adrenergic receptor selectivity (which antagonist blocks cAMP induction) ([6]; β1, β2, α1, α2 antagonists 100 nM pre-treatment, 10 μM ARA-211): highly selective for β2 adrenergic receptors
- growth of tumors [7]: caused tumor regression
